Test results: US10851092B2, “Pyridine compound” (Daiichi Sankyo Company, Limited, priority 2016, dated 2020)
Read-outs that look alike come from different tables or passages of the source.

Experiments:
KDR kinase = KDR kinase (Homo sapiens (Human), UniProt P35968); assay: Evaluation of KDR kinase inhibiting activity (cell system), HUVEC, AlphaLISA; type: cell-based
Procedure: HUVEC cells were seeded on a plate at a cell density of 1500 cells per well, and then cultured overnight. The test compound (10 uM, 2.5 uM, 625 nM, 156 nM, […], 10 nM, 2.5 nM, or 0.6 nM) was added to each well, followed by culturing the obtained mixture for 2 hours. Thereafter, VEGF165 (Peprotech, #100-20) was added to the culture at a final concentration of 50 ng/ml, and the obtained mixture was then reacted at 37° C. for 5 minutes. Thereafter, the resulting cells were lysed with 50 ul of Lysis buffer included in AlphaLISA SureFire Ultra (Perkin Elmer, # ALSU-PVGFR-A500), and Acceptor beads and Donor beads were then added to 10 ul of the cell lysate according to the instruction manual included with the aforementioned kit. The mixture thus obtained was reacted at room temperature overnight, and thereafter, a KDR kinase inhibiting activity rate was measured using Envision (Perkin Elmer).
The value for a well to which only the Lysis buffer had been added was subtracted as a background from all of the values. Thereafter, the value for a well to which […] had been added and the test compound had not been added was defined as a KDR kinase activity of 100%, and the obtained value was corrected.

[1] = test system: non-small cell lung cancer cell line LC-2/ad having a CCDC6-RET fusion gene; assay: Cell growth inhibitory activity, non-small cell lung cancer cell line LC-2/ad; type: cell-based; conditions: Homo sapiens, 216 h; LC-2/ad cells, 9 days, CellTiter-Glo
Procedure: The cell growth inhibitory activity of the test compound on the non-small cell lung cancer cell line LC-2/ad having a CCDC6-RET fusion gene (RIKEN, J Thorac Oncol. 2012 December, 7(12), 1872-6) was measured.
LC-2/ad cells were seeded on a 96-well plate at a cell density of 5,000 cells per well, and then cultured at 37° C. in the presence of 5% CO2 overnight in a medium prepared by mixing RPMI-1640 containing 15% FBS and 25 mM HEPES with Ham's F12 Mixture at a mixing ratio of 1:1. Thereafter, the test compound was diluted, and then added to the 96-well plate. As a negative control, dimethyl sulfoxide (hereinafter referred to as DMSO) was added. The obtained mixture was cultured at 37° C. in the presence of 5% CO2 for 9 days, and thereafter, a cell count measuring reagent CellTiter-Glo® Luminescent Cell Viability Assay (Promega, # G7571) was added to the culture, followed by stirring the mixture. Thereafter, using a luminescence measurement device Envision, the luminescence intensity was measured. The measurement value of a well to which only the medium had been added was define as a survival rate of 0%, and the measurement value of a well to which DMSO had been added was defined as a survival rate of 100%. The survival rate of the LC-2/ad cells in the presence of each concentration of the test compound was calculated.

[2] = test system: thyroid gland cancer cell line TT having RET activating mutation (C634W); assay: Cell growth inhibitory activity, thyroid gland cancer cell line TT; type: cell-based; conditions: Homo sapiens, 216 h; TT cells, 9 days, CellTiter-Glo
Procedure: The cell growth inhibitory activity of the test compound on the thyroid gland cancer cell line TT having RET activating mutation (C634W) (Biochemical and Biophysical Research Communications. 1995 Feb. 27 (207), 1022-1028) was measured.
TT cells were seeded on a 96-well plate at a cell density of 5,000 cells per well, and were then cultured at 37° C. in the presence of 5% CO2 overnight in an F-12K nutrient mixture medium containing 10% FBS. Thereafter, the compound was diluted, and then added to the 96-well plate. As a negative control, dimethyl sulfoxide (hereinafter referred to as DMSO) was added. The obtained mixture was cultured at 37° C. in the presence of 5% CO2 for 9 days, and thereafter, a cell count measuring reagent CellTiter-Glo® Luminescent Cell Viability Assay was added to the culture, followed by stirring the mixture. Thereafter, using a luminescence measurement device Envision (Perkin Elmer), the luminescence intensity was measured. The measurement value of a well to which only the medium had been added was define as a survival rate of 0%, and the measurement value of a well to which DMSO had been added was defined as a survival rate of 100%. The survival rate of the TT cells in the presence of each concentration of the test compound was calculated.

[3] = test system: non-small cell lung cancer cell line LC-2/ad xenograft; assay: Antitumor activity in xenograft model established with LC-2/ad; type: in vivo, NOG mice; conditions: oral
Excerpt: (§1) Cells of a non-small cell lung cancer cell line LC-2/ad (RIKEN, J Thorac Oncol. 2012 December, 7(12), 1872-6) suspended in DPBS (Gibco, #14190) were mixed with an equal amount of Corning Matrigel Basement Membrane Matrix (Corning, #354234), and the obtained mixture was then subcutaneously transplanted into NOG mice to form a tumor. (The NOG mice were acclimatized after they had been received from In Vivo Science Inc., and thereafter, the cells were transplanted into the mice when the mice were 9 week olds. As feedstuff, FR-2 (manufactured by Funabashi Farm Co., Ltd.) was used.) After the tumor had reached a size of 100 to 200 mm^3, the mice were randomized based on tumor diameter, and oral administration of the compound of Example 4 (hereinafter referred to as Compound A) was then initiated. As a solvent for dissolving Compound A, 1% hydroxypropyl methyl cellulose was used. […] Moreover, the tumor was collected (no administration was carried out on the Vehicle group) two hours and six hours after the final administration of Compound A, and the RET phosphorylation of the tyrosine at position 905 used as an indicator of RET kinase activity (pRET(Y905), Nature Medicine, 18, 375-377 (2012)) was then detected by the Western blotting method.

[4] = biological target: RET phosphorylation of the tyrosine at position 905 (pRET(Y905)) (Homo sapiens (Human), UniProt P07949+Q16204); assay: RET phosphorylation (Y905) in LC-2/ad xenograft tumors, Western blotting; type: in vivo, NOG mice; conditions: tumor collected two and six hours after final administration (FIG. 2)
Excerpt: as §1

KDR kinase, sequence (P35968 20-1356): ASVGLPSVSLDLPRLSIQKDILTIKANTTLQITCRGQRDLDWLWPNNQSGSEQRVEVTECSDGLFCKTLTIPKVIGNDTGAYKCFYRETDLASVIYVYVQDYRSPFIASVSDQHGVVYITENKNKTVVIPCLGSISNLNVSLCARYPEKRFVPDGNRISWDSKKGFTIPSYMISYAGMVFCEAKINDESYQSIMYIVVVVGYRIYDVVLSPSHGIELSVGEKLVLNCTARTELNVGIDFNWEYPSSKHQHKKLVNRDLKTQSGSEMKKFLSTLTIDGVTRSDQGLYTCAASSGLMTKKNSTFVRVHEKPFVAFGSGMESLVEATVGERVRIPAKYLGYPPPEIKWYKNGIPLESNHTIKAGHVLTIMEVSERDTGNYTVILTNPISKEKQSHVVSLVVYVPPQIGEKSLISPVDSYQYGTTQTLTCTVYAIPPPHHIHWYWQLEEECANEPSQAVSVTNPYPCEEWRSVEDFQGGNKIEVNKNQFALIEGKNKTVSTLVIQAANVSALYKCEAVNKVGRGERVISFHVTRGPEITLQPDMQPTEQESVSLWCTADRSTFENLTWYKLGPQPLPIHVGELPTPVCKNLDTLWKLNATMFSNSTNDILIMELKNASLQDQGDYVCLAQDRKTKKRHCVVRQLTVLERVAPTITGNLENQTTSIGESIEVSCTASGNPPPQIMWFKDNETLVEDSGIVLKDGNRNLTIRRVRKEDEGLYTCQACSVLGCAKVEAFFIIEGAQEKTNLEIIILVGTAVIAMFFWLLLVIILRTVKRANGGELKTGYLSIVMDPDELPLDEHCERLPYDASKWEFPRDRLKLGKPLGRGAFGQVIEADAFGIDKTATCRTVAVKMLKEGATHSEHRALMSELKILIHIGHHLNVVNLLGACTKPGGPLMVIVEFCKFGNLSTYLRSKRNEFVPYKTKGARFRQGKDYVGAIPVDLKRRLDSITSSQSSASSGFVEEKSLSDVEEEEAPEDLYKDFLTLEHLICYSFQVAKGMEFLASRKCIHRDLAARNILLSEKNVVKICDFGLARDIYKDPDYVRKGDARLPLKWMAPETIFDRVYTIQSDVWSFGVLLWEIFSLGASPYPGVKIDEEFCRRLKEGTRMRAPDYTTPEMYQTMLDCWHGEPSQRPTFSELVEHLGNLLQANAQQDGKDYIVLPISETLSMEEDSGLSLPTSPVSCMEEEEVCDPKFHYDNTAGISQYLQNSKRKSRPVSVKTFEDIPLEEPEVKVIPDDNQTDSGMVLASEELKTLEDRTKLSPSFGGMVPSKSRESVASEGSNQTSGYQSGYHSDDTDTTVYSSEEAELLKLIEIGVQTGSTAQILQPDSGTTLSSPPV
RET phosphorylation of the tyrosine at position 905 (pRET(Y905)), sequence (P07949 other isoform, or with tags, fused parts or gaps): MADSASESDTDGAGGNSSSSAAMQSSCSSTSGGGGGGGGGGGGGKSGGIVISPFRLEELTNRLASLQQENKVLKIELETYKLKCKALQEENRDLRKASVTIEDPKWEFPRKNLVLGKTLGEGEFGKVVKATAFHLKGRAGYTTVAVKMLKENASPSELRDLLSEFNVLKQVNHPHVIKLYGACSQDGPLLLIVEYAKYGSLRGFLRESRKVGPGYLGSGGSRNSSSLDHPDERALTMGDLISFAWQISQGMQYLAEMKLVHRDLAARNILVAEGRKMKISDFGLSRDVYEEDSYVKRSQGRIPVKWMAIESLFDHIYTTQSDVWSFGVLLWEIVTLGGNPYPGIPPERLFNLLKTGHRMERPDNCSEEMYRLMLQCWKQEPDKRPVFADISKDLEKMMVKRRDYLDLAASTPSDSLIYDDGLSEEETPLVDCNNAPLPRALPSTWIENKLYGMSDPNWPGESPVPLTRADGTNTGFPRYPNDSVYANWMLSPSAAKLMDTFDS

IC50 (KDR kinase; KDR, HUVEC cells, VEGF165 50 ng/ml, compound 2 hours, read-out: IC50): 298 nM
IC50 (KDR kinase; cell system, Form: Mesylate, read-out: IC50 (nM) KDR): 287 nM
IC50 [1]: 49 nM
IC50 [2]: 6 nM
Compound: COc1cc2cc(-c3ccc(CC(=O)Nc4cc(C(C)(C)C(F)(F)F)no4)cn3)cnc2cc1OC [Example 4, 2-[6-(6,7-Dimethoxyquinolin-3-yl)pyridin-3-yl]-N-[3-(1,1,1-trifluoro-2-methylpropan-2-yl)-1,2-oxazol-5-yl]acetamide Methanesulfonate]
tumor regression ([3]; 3 mg/kg or 1 mg/kg three times a day for 9 days (FIG. 1)): dose-dependent tumor regression
reduction in body weight ([3]; 3 mg/kg or 1 mg/kg three times a day for 9 days, compared to Vehicle group): no significant reduction in body weight
suppression of the phosphorylation of Y905 (pRET(Y905)) [4]: dose-dependent suppression of the phosphorylation of Y905
